In paper PMC3215869 (Journal of Pharmacokinetics and Pharmacodynamics, 2011):

Legend:
[1] = test system: telemetered rat (transitions between SLEEP and WAKE states); assay type: in vivo, Male Sprague–Dawley rats
[2] = Pharmacokinetic model: typical-rat PK from satellite PK experiments, oral dosing; assay type: in vivo, rats; conditions: Sprague-Dawley, plasma

With `COC(=O)C(c1ccccc1)C1CCCCN1` (centres unmarked) [methylphenidate, Methylphenidate] the EC50 ([1]; Rattus norvegicus, intensity v (SLEEP to WAKE, clearance of sleep), plasma concentration, mean (95% confidence limits)) was 288 nM, the “Teq,drug (equilibrium half-life plasma to effect compartment)” value ([1]; delay on intensity u (acquisition of sleep), mean (95% confidence limits)) was 24 (17, 40) min and the “overall effect on sleep/wakefulness compared to placebo” value ([1]; rats, Figs. 4 and 6) was “tend to promote wakefulness”. The “relative potency in inducing sleep fragmentation, methylphenidate versus NCE” value ([1]; rats, from estimated maximum effects) was “fivefold more potent”, the “effect on the transitions between sleep states (intensities)” value ([1]; rats, sign of Emax values, Fig. 2) was “inhibit the transitions from one sleep status to another” and the Cmax ([2]; 3 mg) was 44 nM. The Tmax ([2]; 3 mg) was 12 s, the Cmax ([2]; 10 mg) was 146 nM and the Tmax ([2]; 10 mg) was 12 s. The Cmax ([2]; 30 mg) was 438 nM and the Tmax ([2]; 30 mg) was 12 s.
